Series [1] relates to surface PD-L1 on MM1 (Medulloblastoma) cells. The series is described as follows: Surface PD-L1 expression on MM1 cells upon IFNγ exposure in the presence of compound. Type of series: cell-based, mouse. The procedure: (§1) a) Seed wild type MM1 (Medulloblastoma) and RMS 76.9 (Rhabdomyosarcoma) tumor cells (100,000 per well in 6-well plate and 3 ml media). Use PD-L1-deficient tumor cells (crPDL1; genetically manipulated using CRISPR-Cas9 technology) as controls:
(§2) b) Serum starve overnight
(§3) c) Add various concentration of CYC065 in DMSO, along with 100 ng/ml IFNγ
(§4) d) 24 hours later, harvest cells, stain for PD-L1 using anti-mPDL1-PE antibody and analyze by flow cytometry

The next series has as its system MM1 tumors. The series is described as follows: In vivo anti-tumor efficacy against subcutaneous MM1 tumors. The procedure:
e) 10 8-12 week-old […] male mice per cohort were used for all in vivo tumor growth kinetics experiment.
f) 50,000 tumor cells were inoculated subcutaneously in the flank on Day 0
h) Mice were monitored at least twice a week for tumor growth and tumor size measurements.

The test system of series [2] is PD-L1, MHC-II and MHC-I surface expression on harvested MM1 tumor cells. The series is described as follows: IFNγ response of tumor cells harvested on Day 21 from treated mice and cultured in vitro. To be noted: tumors from in vivo treated mice; cultured 7-10 days without compound; IFNγ 100 ng/ml 24 hours. Type of series: cell-based, mouse. From the text: i) Tumor mass was resected on Day 21 and grown in culture for 1 week, followed by 24-hour exposure to IFNγ to assess PD-L1 response in vitro.

In series [3] the test system is surface PD-L1 on RMS 76.9 (Rhabdomyosarcoma) cells. The series is described as follows: Surface PD-L1 expression on RMS 76.9 cells upon IFNγ exposure in the presence of compound. To be noted: 24-hour exposure, IFNγ 100 ng/ml. It counts as cell-based, mouse. The procedure:
as §1, §2, §3, §4

The subject of series [4] is surface PD-L1 on DAOY and UW228 human MB lines. The series is described as follows: Surface PD-L1 (flow cytometry) on human MB lines treated with Roscovitine and stimulated with IFNγ. Type of series: cell-based. To be noted: IFNγ 24 hours. On the technique in general: In flow cytometry, cells or beads pass a laser one at a time.
For series [5], the system named is PD-L1 transcript in MM1 WT cells. As to the kind of experiment: PD-L1 mRNA expression (qPCR) in MM1 WT cells treated with Roscovitine and stimulated with IFNγ. Type of series: cell-based, mouse. To be noted: Roscovitine 10 μM or 20 μM, 4 days, IFNγ 100 ng/ml 24 hours. The method, then:
Total cellular RNA was isolated from 5×10^6-107 cells using TRIZOL and RNAspin Mini kit (GE Healthcare, UK), treated with DNAseI to eliminate genomic DNA, and quantitated using the NanoDrop2000 spectrophotometer. Reverse transcription (RT) of 1 μg of total RNA was performed with oligo(dT)16 using on using SuperScript First Strand Synthesis System for RT-PCR kit (Life Technologies, Carlsbad, Calif.). The resulting cDNA was used as a template for the amplification of target gene transcripts by real time PCR, using SYBR Green PCR Master Mix (Life Technologies, Carlsbad, Calif.) on the ABI 7300 Real-Time PCR machine (Life Technologies, Carlsbad, Calif.). Target gene expression was calculated using the standard curve method upon normalization to cytochrome c housekeeping gene. The primer sequences were as follows: Cdk5 forward: […]; Cdk5 reverse: […]; cytochrome c forward: […]; cytochrome c reverse: […]; p35 forward: […]; p35 reverse: […]; PD-L1 forward: […] and PD-L1 reverse: […].
Murine MB cell lines MM1 were grown in RPMI supplemented with 10% FBS. A stock solution of Roscovitine (10 mM) or vehicle control-DMSO was diluted in fresh tumor medium and added to samples to achieve a final concentration of 10 μM or 20 μM. After 4 days of treatment, cells were subjected to 100 ng/ml rmIFN-γ (R&D Systems) for 24 hours and then harvested for qPCR analysis.
A general note: In qPCR the cycle at which signal appears reflects the starting amount.

The subject of series [6] is surface PD-L1 on MM1 (Medulloblastoma) cells. To be noted: same cell lines (MM1, RMS); reported in Dorand et al. Science 2016; cited from earlier work.
Setting [7] is: MM1, 24-hour exposure, IFNγ 100 ng/ml.

The source of these data is patent US11124571B2, “Methods of sensitizing cancer to immunotherapy” (CASE WESTERN RESERVE UNIVERSITY, priority 2016, dated 2021).

One may read the mortality as the share of the test organisms that died.

Some results are limits rather than exact numbers.

Consider `CC[C@H](Nc1nc(NCc2cnc(C)cc2C)c2ncn(C(C)C)c2n1)[C@@H](C)O` [CYC065], for which, in series [1] (setting [7]), the “concentration at which PD-L1 response upon IFNγ stimulation is completely abrogated” value worked out at 1 µM and the “concentration at which cells began to show PD-L1 down-modulation” value turned out to be 0.5 µM. Also, in series [1] (MM1 and RMS cell lines), the “increase in potency for PD-L1 down modulation as compared to Roscovitin” value was over 10 fold. The same compound showed a mortality in the series with MM1 tumors (50 mg/kg daily×5 days/week by gavage in water, prolonged exposure, MM1-bearing C57BL/6 mice) of 70%. In addition, the tumor size entry in the series on MM1 tumors (50 mg/kg daily×5 days/week by gavage, start Day 0 or Day 7) was “significantly smaller sized tumor”. In addition, in series [2], the “MHC-II/MHC-I response upon in vitro exposure to IFNγ” value is reported as “enhanced MHC-II/MHC-I enhancement” and the “PD-L1 response upon in vitro exposure to IFNγ” value is reported as “reduced PD-L1 response”. For the same compound, the “concentration at which PD-L1 response upon IFNγ stimulation is completely abrogated” value in series [3] turned out to be 1 µM.
For `CC[C@H](CO)Nc1nc(NCc2ccccc2)c2ncn(C(C)C)c2n1` [Roscovitine, 6-benzylamino-2-[(R)-1-ethyl-2-hydroxyethylamino]-9-isopropylpurine], the “surface PD-L1 upregulation upon IFNγ exposure” value in series [4] is listed as “diminished surface PD-L1 upregulation”. The PD-L1 transcript result in series [5] is “dose-dependent decrease”. The “concentration at which effects on PD-L1 down modulation are shown” value in series [6] was at least 10 µM.
